Values of other authors as cited in PMC10052035, “Virtual Screening, Structural Analysis, and Formation Thermodynamics of Carbamazepine Cocrystals” (Pharmaceutics, 2023).
Where two headings read alike, the source gives them in different places.

Conditions: cited from earlier work

For `NC(=O)N1c2ccccc2C=Cc2ccccc21.O=C1NS(=O)(=O)c2ccccc21` [[CBZ + Saccharin] (1:1)], the TΔformS (306 K, ref [15]) is given as -0.311 kcal/mol, the ΔformG (306 K, ref [15]) is given as -1.1 kcal/mol and the ΔformH (306 K, ref [15]) is given as -1.41 ± 0.22 kcal/mol.
For `NC(=O)c1ccccc1O.O=C1CN(N=Cc2ccc([N+](=O)[O-])o2)C(=O)N1` [[Nitrofurantoin + Salicylamide] (1:1)], the TΔformS (298 K, ref [19]) is listed as 0.072 ± 0.17 kcal/mol, the ΔformG (298 K, ref [19]) is listed as -0.14 ± 0.096 kcal/mol and the ΔformH (298 K, ref [19]) is listed as -0.072 ± 0.14 kcal/mol. The TΔformS (298 K, ref [19], listed as 14) was “≈ 0 kJ·mol-1”.
For `Cc1ccc(-c2cc(C(F)(F)F)nn2-c2ccc(S(N)(=O)=O)cc2)cc1.NC(=O)c1cccnc1` [[Celecoxib + Nicotinamide] (1:1)], the TΔformS (298 K, ref [20]) is listed as 1.65 ± 0.478 kcal/mol, the ΔformG (298 K, ref [20]) is listed as -0.0837 ± 0.012 kcal/mol and the ΔformH (298 K, ref [20]) is listed as 1.55 ± 0.359 kcal/mol.
In the case of `CC(O)(CS(=O)(=O)c1ccc(F)cc1)C(=O)Nc1ccc(C#N)c(C(F)(F)F)c1.NC(=O)c1ccccc1` (stereo not drawn) [[Bicalutamide + Benzamide] (1:1)], the TΔformS (298 K, ref [11]) is listed as -3.87 ± 0.263 kcal/mol, the ΔformG (298 K, ref [11]) is listed as -0.813 ± 0.072 kcal/mol and the ΔformH (298 K, ref [11]) is listed as -4.68 ± 0.19 kcal/mol.
For `NC(=O)N1c2ccccc2C=Cc2ccccc21.NC(=O)c1ccccc1` [[CBZ + Benzamide] (1:1)], the TΔformS (298 K, ref [22]) is given as 7.29 ± 0.693 kcal/mol, the ΔformG (298 K, ref [22]) is given as -1.15 ± 0.072 kcal/mol and the ΔformH (298 K, ref [22]) is given as 6.14 ± 0.454 kcal/mol.
For `NC(=O)c1ccccc1N.O=C1CN(N=Cc2ccc([N+](=O)[O-])o2)C(=O)N1`, the TΔformS (298 K, ref [19]) is given as 0.311 ± 0.263 kcal/mol, the ΔformG (298 K, ref [19]) is given as -1.08 ± 0.12 kcal/mol and the ΔformH (298 K, ref [19]) is given as -0.789 ± 0.19 kcal/mol. For the same compound, the TΔformS (298 K, ref [19], listed as 13) was “≈ 0 kJ·mol-1”.
For `NCC(=O)O.O=C(O)/C=C\C(=O)O` [[Glycine + Maleic acid] (1:1)], the TΔformS (298 K, ref [17]) is given as -1.36 ± 0.239 kcal/mol, the ΔformG (298 K, ref [17]) is given as -1.29 ± 0.096 kcal/mol and the ΔformH (298 K, ref [17]) is given as -2.65 ± 0.22 kcal/mol.
For `NC(=O)c1ccncc1.O=C1CN(N=Cc2ccc([N+](=O)[O-])o2)C(=O)N1` [[Nitrofurantoin + Isonicotinamide] (1:1)], the TΔformS (298 K, ref [19]) is listed as 1.43 ± 0.17 kcal/mol, the ΔformG (298 K, ref [19]) is listed as -1.12 ± 0.096 kcal/mol and the ΔformH (298 K, ref [19]) is listed as 0.311 ± 0.14 kcal/mol.
In the case of `NC(=O)N1c2ccccc2C=Cc2ccccc21.NC(=O)c1ccncc1` [[CBZ + isonicotinamide] (1:1)], the TΔformS (298 K, ref [22]) is given as 5.26 ± 0.598 kcal/mol, the ΔformG (298 K, ref [22]) is given as -0.502 ± 0.024 kcal/mol and the ΔformH (298 K, ref [22]) is given as 4.76 ± 0.454 kcal/mol.
In the case of `Cc1cc(C)nc(NS(=O)(=O)c2ccc(N)cc2)n1.O=C(O)c1ccccc1O` [[Sulfamethazine + salicylic acid] (1:1)], the TΔformS (293 K, ref [21]) is given as 7.1 kcal/mol, the ΔformG (293 K, ref [21]) is given as -1.7 kcal/mol and the ΔformH (293 K, ref [21]) is given as 5.52 kcal/mol.
For `NC(=O)c1cnccn1.Nc1ccc(C(=O)O)cc1`, the TΔformS (298 K, ref [14]) is given as -8.01 ± 0.765 kcal/mol, the ΔformG (298 K, ref [14]) is given as -1.46 ± 0.072 kcal/mol and the ΔformH (298 K, ref [14]) is given as -9.46 ± 0.693 kcal/mol.
In the case of `NC(=O)N1c2ccccc2C=Cc2ccccc21.NC(=O)c1ccc(O)cc1` [[CBZ + 4-Hydroxybenzamide] (1:1)], the TΔformS (298 K, ref [22]) is given as -1.36 ± 0.12 kcal/mol, the ΔformG (298 K, ref [22]) is given as -1.6 ± 0.12 kcal/mol and the ΔformH (298 K, ref [22]) is given as -2.96 ± 0.22 kcal/mol.
In the case of `O=C(NN=Cc1ccccc1O)c1ccncc1.O=C1NS(=O)(=O)c2ccccc21` [[Salinazid + Saccharin] (1:1)], the TΔformS (298 K, ref [13]) is listed as -2.65 ± 0.382 kcal/mol, the ΔformG (298 K, ref [13]) is listed as -1.74 ± 0.14 kcal/mol and the ΔformH (298 K, ref [13]) is listed as -4.4 ± 0.239 kcal/mol.
For `CNC(=O)c1cc(Oc2ccc(NC(=O)Nc3ccc(Cl)c(C(F)(F)F)c3)cc2)ccn1.O=c1[nH]cc(F)c(=O)[nH]1` [[Sorafenib + 5-fluorouracil] (1:1)], the TΔformS (303 K, ref [18]) is given as 0.0048 ± 0.024 kcal/mol, the ΔformG (303 K, ref [18]) is given as -1.14 ± 0.022 kcal/mol and the ΔformH (303 K, ref [18]) is given as -1.14 ± 0.017 kcal/mol. For the same compound, the TΔformS (303 K, ref [18], listed as 11) was “≈ 0 kJ·mol-1”.
For `CC(O)(CS(=O)(=O)c1ccc(F)cc1)C(=O)Nc1ccc(C#N)c(C(F)(F)F)c1.NC(=O)c1ccccc1O` (stereo not drawn) [[Bicalutamide + Salicylamide] (1:1)], the TΔformS (298 K, ref [11]) is given as -2.2 ± 0.19 kcal/mol, the ΔformG (298 K, ref [11]) is given as -0.526 ± 0.072 kcal/mol and the ΔformH (298 K, ref [11]) is given as -2.72 ± 0.12 kcal/mol.
